Where two headings read alike, the source gives them in different places.
Assays:
[1] = test system: AEA cellular uptake, U937 cells; assay: [3H]-AEA cellular uptake inhibition in U937 cells; assay type: cell-based; conditions: Homo sapiens, U-937, U937 cells
Method: [^3H]-AEA Cellular Uptake
Screening for AEA cellular uptake inhibition was performed in a semi-automated procedure: Pipetting and washing steps were performed by a Biomek3000 laboratory workstation. First, required amounts of U937 cells were centrifuged at 100×g for 5 min and resuspended in RPMI (37° C.) to a final concentration of 2×10^6 cells/mL. Then, 250 μL of cell suspension (0.5×10^6 cells per sample) were transferred into AquaSil™ silanized glass vials (Chromacol 1.1-MTV) in 96-well format. After addition of 5 μL vehicle (DMSO) or compounds the cells were incubated at 37° C. for 15 min. As positive controls OMDM-2 and UCM707 were used at 10 μM in each run. The ETI-T compounds were measured at up to 7 concentrations in triplicates from 100 pM-100 μM. After pre-incubation, a mixture of 0.5 nM[ethanolamine-1-^3H]-AEA, (60 Ci/mmol) and 99.5 nM of cold AEA (final 100 nM) was added and samples were incubated at 37° C. for another 15 min. The reaction was stopped by rapid filtration over UniFilter-96 GF/C filters (PerkinElmer) pre-soaked with PBS 0.25% BSA. Cells were washed three times with 100 μL ice-cold PBS buffer containing 1% fatty acid free BSA. After drying, 45 μL MicroScint 20 scintillation cocktail (PerkinElmer, Waltham, Mass., US) was added to the wells and the plate was sealed. Radioactivity was measured by liquid scintillation counting on a PerkinElmer Wallac Trilux MicroBeta 1450 during 2 min. Non-specific binding of [^3H]AEA (100 nM) to the glass vials was never higher than 10%. IC50 values were calculated by GraphPad® by non-linear regression using the built-in log(inhibitor) vs. response-variable slope (four parameters) function.
(§1) Statistical analysis and IC50 values were determined using GraphPad® Prism 5.0 (GraphPad® Software, San Diego, Calif., US). Inhibition curves were obtained by non-linear regression using the built-in log(inhibitor) vs. response-variable slope (four parameters) function. Results were calculated as % of vehicle control of the corresponding fraction (cells, aqueous phase) if not mentioned else. In vivo results are shown in absolute values and were analyzed by a one-way ANOVA following a Tukey's multiple comparison test or student's t-test. If not indicated else the results were compared vs. vehicle (CTRL). *** P<0.001, ** P<0.01, * P<0.05, ns=not significant P>0.05.

[2] = test system: TNF-alpha and IL-1beta in brain; assay: Endotoxemia mouse model (LPS), brain cytokines; assay type: in vivo, mice; conditions: 5 mg/kg i.p. 30 min prior to LPS 250 μg/100 g i.p., vs. vehicle, P<0.05
Method: Male BALB/c mice were injected i.p. with test compounds (5 mg/kg) or vehicle (DMSO, 20 μL) 30 min prior to LPS administration (250 μg/100 g body weight) in 50 μL saline solution. The administrations were conducted between 9:00 and 10:00 am. 30 min prior to scarification, 20 units (200 μL) of Inhepar® were injected subcutaneously. […] The brain was immediately removed on ice and stored in liquid nitrogen. […] The concentrations of the cytokines in brain and plasma were measured using commercially available Luminex MagPix cytokines assay (BioRad) specific for mice, according to the manufacturer's instructions. The acquisition of the fluorescent signal was achieved by a charged-coupled device (CCD) imager. The concentration of the analytes was determined by MAGPIX xPONENT. The assays were run in triplicates and the concentrations were expressed in pg/mL based on a standard curve.
as §1

[3] = Table 1, 100 nM AEA, read-out: AEA uptake inhibition IC50
[4] = Table 4, read-out: AEA uptake IC50

IC50 [1, 3] [nM]	IC50 [1, 4] [nM]	Structure (SMILES)	IL-1beta level in total brain ([2]; after 2 hours)	TNF-alpha level in total brain ([2]; after 2 hours)	IL-1beta level in total brain ([2]; after 8 hours)	TNF-alpha level in total brain ([2]; after 8 hours)
225	225	COc1cc(/C=C2\S/C(=N\c3ccccc3)N(c3ccccc3)C2=O)ccc1O [Compound 6]	–	–	–	–
990	990	O=C1/C(=C/c2cc(Cl)c(O)c(Cl)c2)S/C(=N\c2ccccc2)N1Cc1ccco1 [Compound 23]	–	–	–	–
148	148	COc1ccc(/C=C2\S/C(=N\c3ccc(OC)cc3)N(c3ccc(OC)cc3)C2=O)cc1 [Compound 5]	Decrease	Decrease	Decrease	Decrease

Reference: patent US10300048B2, “Thiazolidinones as cellular anandamide uptake inhibitors and their use in the treatment of psychiatric or neurological disorders and inflammation, in particular neuroinflammation” (UNIVERSITAT BERN, priority 2014, dated 2019)
